Measurements published in patent publication US8293682B2, “Growth regulators for gramineous weeds” (Rikengreen Co., Ltd., priority 2008, dated 2012).

Tests used:
[1] = tested on: annual bluegrass (Poa annua L.); details: cited from earlier work
[2] = tested on: southern crabgrasses (Digitaria ciliaris Koel.); experiment: Test Example 5: field test in Manilagrass turf, inhibitory effect for ear emergence; assay type: in vivo
Experimental: In a Manilagrass (Zoysia matrella) turf where southern crabgrasses (Digitaria ciliaris Koel.) were grown, a test zone of 1 m×1 m was provided. Benzyladenine (Beanine for painting; made by Rikengreen; containing 1% benzyladenine) and ethephon (Ethrel 10 soluble concentrate; Nissan Chemical Industries; containing 10% ethephon) were diluted in a predetermined amount of water. The respectively diluted solutions were applied to each test zone at the first application (Day 0) at a dose as indicated in Table, and after a lapse of 17 days the second application was carried out. The first application was conducted before the ear emergence of southern crabgrasses (Digitaria ciliaris Koel.). The amount of solution scattered was 150 mL/m^2 both in the first and second applications. The inhibitory effect for the ear emergence of southern crabgrasses (Digitaria ciliaris Koel.) within the area of 1 m×1 m was evaluated according to the standard as described in Table 7. […] The symbol “●” in Table 8 indicates the treatment with each agent, and “−” means untreated. Dose means the amount at a single application.

SMILES: O=P(O)(O)CCCl [Ethephon, 2-chloroethylphosphonic acid]
- growth of annual bluegrass growing among Kentucky bluegrass ([1]; Non-patent document 3, dose of 3.2 kg/hectare): slowed growth
- ear emergence of annual bluegrass growing among bent grass ([1]; Non-patent document 4, 3.8-7.6 kg/hectare): inhibits the ear emergence
- Evaluation: index of inhibitory effect for ear emergence ([2]; Day 18, Ethephon 50 mg a.i./m^2, applied Day 0): 2 (20% or more-less than 30%)
- Evaluation: index of inhibitory effect for ear emergence ([2]; Day 26, Ethephon 50 mg a.i./m^2, applied Day 0): 3 (30% or more-less than 40%)
- Evaluation: index of inhibitory effect for ear emergence ([2]; Day 26, Ethephon 50 mg a.i./m^2, applied Day 0 and Day 17): 4 (40% or more-less than 50%)
- Evaluation: index of inhibitory effect for ear emergence ([2]; Day 33, Ethephon 50 mg a.i./m^2, applied Day 0): 1 (10% or more-less than 20%)
- Evaluation: index of inhibitory effect for ear emergence ([2]; Day 33, Ethephon 50 mg a.i./m^2, applied Day 0 and Day 17): 5 (50% or more-less than 60%)
- Evaluation: index of inhibitory effect for ear emergence ([2]; Day 41, Ethephon 50 mg a.i./m^2, applied Day 0): 1 (10% or more-less than 20%)
- Evaluation: index of inhibitory effect for ear emergence ([2]; Day 41, Ethephon 50 mg a.i./m^2, applied Day 0 and Day 17): 2 (20% or more-less than 30%)

SMILES: c1ccc(CNc2ncnc3nc[nH]c23)cc1 [Benzyladenine, 6-benzylaminopurine]
- Evaluation: index of inhibitory effect for ear emergence ([2]; Day 18, Benzyladenine 2.5 mg a.i./m^2, applied Day 0): 0 (0% or more-less than 10%)
- Evaluation: index of inhibitory effect for ear emergence ([2]; Day 18, Benzyladenine 5 mg a.i./m^2, applied Day 0): 0 (0% or more-less than 10%)
- Evaluation: index of inhibitory effect for ear emergence ([2]; Day 18, Benzyladenine 10 mg a.i./m^2, applied Day 0): 2 (20% or more-less than 30%)
- Evaluation: index of inhibitory effect for ear emergence ([2]; Day 18, Benzyladenine 15 mg a.i./m^2, applied Day 0): 10 (100%)
- Evaluation: index of inhibitory effect for ear emergence ([2]; Day 26, Benzyladenine 2.5 mg a.i./m^2, applied Day 0): 0 (0% or more-less than 10%)
- Evaluation: index of inhibitory effect for ear emergence ([2]; Day 26, Benzyladenine 2.5 mg a.i./m^2, applied Day 0 and Day 17): 1 (10% or more-less than 20%)
- Evaluation: index of inhibitory effect for ear emergence ([2]; Day 26, Benzyladenine 5 mg a.i./m^2, applied Day 0): 0 (0% or more-less than 10%)
- Evaluation: index of inhibitory effect for ear emergence ([2]; Day 26, Benzyladenine 5 mg a.i./m^2, applied Day 0 and Day 17): 2 (20% or more-less than 30%)
- Evaluation: index of inhibitory effect for ear emergence ([2]; Day 26, Benzyladenine 10 mg a.i./m^2, applied Day 0): 2 (20% or more-less than 30%)
- Evaluation: index of inhibitory effect for ear emergence ([2]; Day 26, Benzyladenine 10 mg a.i./m^2, applied Day 0 and Day 17): 6 (60% or more-less than 70%)
- Evaluation: index of inhibitory effect for ear emergence ([2]; Day 26, Benzyladenine 15 mg a.i./m^2, applied Day 0): 9 (90% or more-less than 100%)
- Evaluation: index of inhibitory effect for ear emergence ([2]; Day 26, Benzyladenine 15 mg a.i./m^2, applied Day 0 and Day 17): 10 (100%)
- Evaluation: index of inhibitory effect for ear emergence ([2]; Day 33, Benzyladenine 2.5 mg a.i./m^2, applied Day 0): 0 (0% or more-less than 10%)
- Evaluation: index of inhibitory effect for ear emergence ([2]; Day 33, Benzyladenine 2.5 mg a.i./m^2, applied Day 0 and Day 17): 3 (30% or more-less than 40%)
- Evaluation: index of inhibitory effect for ear emergence ([2]; Day 33, Benzyladenine 5 mg a.i./m^2, applied Day 0): 1 (10% or more-less than 20%)
- Evaluation: index of inhibitory effect for ear emergence ([2]; Day 33, Benzyladenine 5 mg a.i./m^2, applied Day 0 and Day 17): 3 (30% or more-less than 40%)
- Evaluation: index of inhibitory effect for ear emergence ([2]; Day 33, Benzyladenine 10 mg a.i./m^2, applied Day 0): 5 (50% or more-less than 60%)
- Evaluation: index of inhibitory effect for ear emergence ([2]; Day 33, Benzyladenine 10 mg a.i./m^2, applied Day 0 and Day 17): 7 (70% or more-less than 80%)
- Evaluation: index of inhibitory effect for ear emergence ([2]; Day 33, Benzyladenine 15 mg a.i./m^2, applied Day 0): 7 (70% or more-less than 80%)
- Evaluation: index of inhibitory effect for ear emergence ([2]; Day 33, Benzyladenine 15 mg a.i./m^2, applied Day 0 and Day 17): 8 (80% or more-less than 90%)
- Evaluation: index of inhibitory effect for ear emergence ([2]; Day 41, Benzyladenine 2.5 mg a.i./m^2, applied Day 0): 0 (0% or more-less than 10%)
- Evaluation: index of inhibitory effect for ear emergence ([2]; Day 41, Benzyladenine 2.5 mg a.i./m^2, applied Day 0 and Day 17): 1 (10% or more-less than 20%)
- Evaluation: index of inhibitory effect for ear emergence ([2]; Day 41, Benzyladenine 5 mg a.i./m^2, applied Day 0): 2 (20% or more-less than 30%)
- Evaluation: index of inhibitory effect for ear emergence ([2]; Day 41, Benzyladenine 5 mg a.i./m^2, applied Day 0 and Day 17): 5 (50% or more-less than 60%)
- Evaluation: index of inhibitory effect for ear emergence ([2]; Day 41, Benzyladenine 10 mg a.i./m^2, applied Day 0): 2 (20% or more-less than 30%)
- Evaluation: index of inhibitory effect for ear emergence ([2]; Day 41, Benzyladenine 10 mg a.i./m^2, applied Day 0 and Day 17): 6 (60% or more-less than 70%)
- Evaluation: index of inhibitory effect for ear emergence ([2]; Day 41, Benzyladenine 15 mg a.i./m^2, applied Day 0): 4 (40% or more-less than 50%)
- Evaluation: index of inhibitory effect for ear emergence ([2]; Day 41, Benzyladenine 15 mg a.i./m^2, applied Day 0 and Day 17): 8 (80% or more-less than 90%)
